Legend:
[1] = test system: subclones of RKO colon adenocarcinoma cells (RKOp27 or RKOp21) arrested by Ponasterone A; assay: Alamar Blue cell viability assay, cell cycle specific mode of action: cells arrested by ectopic p27Kip1 induced by Ponasterone A versus proliferating cells; assay type: cell-based; settings: Homo sapiens, RKO p27 induced (arrested) cells, 10 μM Ponasterone A, 72 hours, value = class bound given in Table A, read-out: −logIC50 RKO p27 induced (arrested) (converted)
Method in brief: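 RKOp27 or RKOp21 cells, 15000/well in DMEM/10% FCS, either arrested by p27Kip1 induced with 10 μM Ponasterone A or proliferating without inducer; compound added after 24 h, 72 h at 37° C. Alamar Blue fluorescence (544/590 nm), viability as % of untreated cells; −log IC50 reported.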

[2] = test system: RKO (RKOp27) human colon adenocarcinoma cells; assay: Alamar Blue cell viability assay, anti-proliferative/cytotoxic activity on proliferating RKO subclones; assay type: cell-based; settings: RKOp27, 72 h, RKO p27 uninduced (proliferating) cells, value = class bound given in Table A, read-out: −logIC50 RKO p27 uninduced (proliferating) (converted)
Method in brief: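 RKOp27 subclones (5000 cells/well) were exposed 24 h after seeding to semi-log compound dilutions in DMEM with 10% FCS, in quadruplicate, for 72 h at 37 °C. Viability was read by Alamar Blue fluorescence (544/590 nm) relative to untreated cells (1% DMSO medium). IC50 came from concentration-effect curves and is reported as −log IC50 [mol/l].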

| SMILES | IC50 [1] | IC50 [2] |
| --- | --- | --- |
| Cc1n[nH]cc1CNC(=O)OCC1CCc2c(sc(NC(=O)CC(C)c3ccccc3)c2C#N)C1 (centres unmarked) [Example 317, (3-Methyl-1H-pyrazol-4-ylmethyl)-carbamic acid 3-cyano-2-(3-phenyl-butanoylamino)-4,5,6,7-tetrahydro-benzo[b] thiophen-6-ylmethyl ester] | ≥ 10000 nM | ≤ 501 nM |
| CC(CC(=O)Nc1sc2c(c1C#N)CCC(COC(=O)NC(C)c1ccnn1C)C2)c1ccccc1 (centres unmarked) [Example 318, [1-(2-Methyl-2H-pyrazol-3-yl)-ethyl]-carbamic acid 3-cyano-2-(3-phenyl-butanoylamino)-4,5,6,7-tetrahydro-benzo[b] thiophen-6-ylmethyl ester] | ≥ 10000 nM | ≤ 501 nM |
| CC(CC(=O)Nc1sc2c(c1C#N)CCC(COC(=O)NCc1cccn1C)C2)c1ccccc1 (centres unmarked) [Example 319, (1-Methyl-1H-pyrrol-2-ylmethyl)-carbamic acid 3-cyano-2-(3-phenyl-butanoylamino)-4,5,6,7-tetrahydro-benzo[b] thiophen-6-ylmethyl ester] | ≥ 50100 nM | ≤ 501 nM |
| Cc1cc(CNC(=O)OCC2CCc3c(sc(NC(=O)CC(C)c4ccccc4)c3C#N)C2)n(C)n1 (centres unmarked) [Example 321, (2,5-Dimethyl-2H-pyrazol-3-ylmethyl)-carbamic acid 3-cyano-2-(3-phenyl-butanoylamino)-4,5,6,7-tetrahydro-benzo[b] thiophen-6-ylmethyl ester] | ≥ 50100 nM | ≤ 501 nM |
| CCn1nccc1CNC(=O)OCC1CCc2c(sc(NC(=O)CC(C)c3ccccc3)c2C#N)C1 (centres unmarked) [Example 322, (2-Ethyl-2H-pyrazol-3-ylmethyl)-carbamic acid 3-cyano-2-(3-phenyl-butanoylamino)-4,5,6,7-tetrahydro-benzo[b] thiophen-6-ylmethyl ester] | ≥ 50100 nM | ≤ 501 nM |
| COc1cccc(C(C)CC(=O)Nc2sc3c(c2C#N)CCC(COC(=O)NCc2ccccn2)C3)c1 (centres unmarked) [Example 324, Pyridin-2-ylmethyl-carbamic acid 3-cyano-2-[3-(3-methoxy-phenyl)-butanoylamino]-4,5,6,7-tetrahydro-benzo[b] thiophen-6-ylmethyl ester] | ≥ 50100 nM | 501 to 2000 nM |
| COc1cccc(C(C)CC(=O)Nc2sc3c(c2C#N)CCC(COC(=O)NCc2cccnc2)C3)c1 (centres unmarked) [Example 325, Pyridin-3-ylmethyl-carbamic acid 3-cyano-2-[3-(3-methoxy-phenyl)-butanoylamino]-4,5,6,7-tetrahydro-benzo[b]thiophen-6-ylmethyl ester] | ≥ 50100 nM | 501 to 2000 nM |
| COc1cccc(C(C)CC(=O)Nc2sc3c(c2C#N)CCC(COC(=O)NCCc2cccnc2)C3)c1 (centres unmarked) [Example 327, (2-Pyridin-3-yl-ethyl)-carbamic acid 3-cyano-2-[3-(3-methoxy-phenyl)-butanoylamino]-4,5,6,7-tetrahydro-benzo[b]thiophen-6-ylmethyl ester] | ≥ 50100 nM | 501 to 2000 nM |
| COc1cccc(C(C)CC(=O)Nc2sc3c(c2C#N)CCC(COC(=O)NCC2CCOCC2)C3)c1 (centres unmarked) [Example 328, (Tetrahydro-pyran-4-ylmethyl)-carbamic acid 3-cyano-2-[3-(3-methoxy-phenyl)-butanoyl-amino]-4,5,6,7-tetrahydro-benzo[b]thiophen-6-ylmethyl ester] | ≥ 50100 nM | 501 to 2000 nM |
| COc1cccc(C(C)CC(=O)Nc2sc3c(c2C#N)CCC(COC(=O)NC2CCOCC2)C3)c1 (centres unmarked) [Example 329, (Tetrahydro-pyran-4-yl)-carbamic acid 3-cyano-2-[3-(3-methoxy-phenyl)-butanoyl-amino]-4,5,6,7-tetrahydro-benzo[b] thiophen-6-ylmethyl ester] | ≥ 50100 nM | 501 to 2000 nM |
| COc1cccc(C(C)CC(=O)Nc2sc3c(c2C#N)CCC(COC(=O)NC(C)c2cccnc2)C3)c1 (centres unmarked) [Example 335, (1-Pyridin-3-yl-ethyl)-carbamic acid 3-cyano-2-[3-(3-methoxy-phenyl)-butanoylamino]-4,5,6,7-tetrahydro-benzo[b] thiophen-6-ylmethyl ester] | ≥ 50100 nM | 501 to 2000 nM |
| COc1cccc(C(C)CC(=O)Nc2sc3c(c2C#N)CCC(COC(=O)NC(C)c2ccnn2C)C3)c1 (centres unmarked) [Example 337, [1-(2-Methyl-2H-pyrazol-3-yl)-ethyl]-carbamic acid 3-cyano-2-[3-(3-methoxy-phenyl)-butanoylamino]-4,5,6,7-tetrahydro-benzo[b] thiophen-6-ylmethyl ester] | ≥ 50100 nM | 501 to 2000 nM |
| CC(CC(=O)Nc1sc2c(c1C#N)CCC(COC(=O)NCc1ccccc1)C2)c1ccccn1 (centres unmarked) [Example 343, Benzyl-carbamic acid 3-cyano-2-(3-pyridin-2-yl-butanoyl-amino)-4,5,6,7-tetrahydro-benzo[b] thiophen-6-ylmethyl ester] | ≥ 50100 nM | ≤ 501 nM |

Now from value to compound, other results behind:

| IC50 [1] | SMILES | IC50 [2] |
| --- | --- | --- |
| ≥ 10000 nM | Cc1nn(C)cc1CNC(=O)OCC1CCc2c(sc(NC(=O)CC(C)c3ccccc3)c2C#N)C1 (centres unmarked) [Example 320, (1,3-Dimethyl-1H-pyrazol-4-ylmethyl)-carbamic acid 3-cyano-2-(3-phenyl-butanoylamino)-4,5,6,7-tetrahydro-benzo[b]thiophen-6-ylmethyl ester] | ≤ 501 nM |
| ≥ 10000 nM | COc1cccc(C(C)CC(=O)Nc2sc3c(c2C#N)CCC(COC(=O)NCc2ccncc2)C3)c1 (centres unmarked) [Example 326, Pyridin-4-ylmethyl-carbamic acid 3-cyano-2-[3-(3-methoxy-phenyl)-butanoylamino]-4,5,6,7-tetrahydro-benzo[b]thiophen-6-ylmethyl ester] | 501 to 2000 nM |
| ≥ 10000 nM | COc1cccc(C(C)CC(=O)Nc2sc3c(c2C#N)CCC(COC(=O)NCc2nccn2C)C3)c1 (centres unmarked) [Example 330, (1-Methyl-1H-imidazol-2-ylmethyl)-carbamic acid 3-cyano-2-[3-(3-methoxy-phenyl)-butanoylamino]-4,5,6,7-tetrahydro-benzo[b] thiophen-6-ylmethyl ester] | 501 to 2000 nM |
| ≥ 10000 nM | COc1cccc(C(C)CC(=O)Nc2sc3c(c2C#N)CCC(COC(=O)NCc2cncn2C)C3)c1 (centres unmarked) [Example 331, (3-Methyl-3H-imidazol-4-ylmethyl)-carbamic acid 3-cyano-2-[3-(3-methoxy-phenyl)-butanoylamino]-4,5,6,7-tetrahydro-benzo[b] thiophen-6-ylmethyl ester] | 501 to 2000 nM |
| ≥ 50100 nM | COc1cccc(C(C)CC(=O)Nc2sc3c(c2C#N)CCC(COC(=O)NCc2ccnn2C)C3)c1 (centres unmarked) [Example 332, (2-Methyl-2H-pyrazol-3-ylmethyl)-carbamic acid 3-cyano-2-[3-(3-methoxy-phenyl)-butanoylamino]-4,5,6,7-tetrahydro-benzo[b] thiophen-6-ylmethyl ester] | 501 to 2000 nM |
| ≥ 10000 nM | COc1cccc(C(C)CC(=O)Nc2sc3c(c2C#N)CCC(COC(=O)NCc2cnn(C)c2)C3)c1 (centres unmarked) [Example 333, (1-Methyl-1H-pyrazol-4-ylmethyl)-carbamic acid 3-cyano-2-[3-(3-methoxy-phenyl)-butanoylamino]-4,5,6,7-tetrahydro-benzo[b]thiophen-6-ylmethyl ester] | 501 to 2000 nM |
| ≥ 50100 nM | COc1cccc(C(C)CC(=O)Nc2sc3c(c2C#N)CCC(COC(=O)NCc2cc(C)on2)C3)c1 (centres unmarked) [Example 334, (5-Methyl-isoxazol-3-ylmethyl)-carbamic acid 3-cyano-2-[3-(3-methoxy-phenyl)-butanoylamino]-4,5,6,7-tetrahydro-benzo[b]thiophen-6-ylmethyl ester] | ≤ 501 nM |
| ≥ 10000 nM | COc1cccc(C(C)CC(=O)Nc2sc3c(c2C#N)CCC(COC(=O)NCc2c[nH]nc2C)C3)c1 (centres unmarked) [Example 336, (3-Methyl-1H-pyrazol-4-ylmethyl)-carbamic acid 3-cyano-2-[3-(3-methoxy-phenyl)-butanoylamino]-4,5,6,7-tetrahydro-benzo[b] thiophen-6-ylmethyl ester] | 501 to 2000 nM |
| ≥ 50100 nM | COc1cccc(C(C)CC(=O)Nc2sc3c(c2C#N)CCC(COC(=O)NCc2cccn2C)C3)c1 (centres unmarked) [Example 338, (1-Methyl-1H-pyrrol-2-ylmethyl)-carbamic acid 3-cyano-2-[3-(3-methoxy-phenyl)-butanoylamino]-4,5,6,7-tetrahydro-benzo[b]thiophen-6-ylmethyl ester] | 501 to 2000 nM |
| ≥ 50100 nM | COc1cccc(C(C)CC(=O)Nc2sc3c(c2C#N)CCC(COC(=O)NCc2cn(C)nc2C)C3)c1 (centres unmarked) [Example 339, (1,3-Dimethyl-1H-pyrazol-4-ylmethyl)-carbamic acid 3-cyano-2-[3-(3-methoxy-phenyl)-butanoylamino]-4,5,6,7-tetrahydro-benzo[b] thiophen-6-ylmethyl ester] | 501 to 2000 nM |
| ≥ 10000 nM | COc1cccc(C(C)CC(=O)Nc2sc3c(c2C#N)CCC(COC(=O)NCc2cc(C)nn2C)C3)c1 (centres unmarked) [Example 340, (2,5-Dimethyl-2H-pyrazol-3-ylmethyl)-carbamic acid 3-cyano-2-[3-(3-methoxy-phenyl)-butanoyl-amino]-4,5,6,7-tetrahydro-benzo[b]thiophen-6-ylmethyl ester] | 501 to 2000 nM |
| ≥ 50100 nM | CCn1nccc1CNC(=O)OCC1CCc2c(sc(NC(=O)CC(C)c3cccc(OC)c3)c2C#N)C1 (centres unmarked) [Example 341, (2-Ethyl-2H-pyrazol-3-ylmethyl)-carbamic acid 3-cyano-2-[3-(3-methoxy-phenyl)-butanoylamino]-4,5,6,7-tetrahydro-benzo[b] thiophen-6-ylmethyl ester] | 501 to 2000 nM |

Source: patent US20110044938A1 (NYCOMED GMBH, priority 2006, published 2011)
